Data on 20 compounds can be found in US8455475B2 (Gruenenthal GmbH, priority 2009, dated 2013).

In general, inhibition refers to the relative decrease from the control value, in per cent.

The assay concerns the target T1, rat B1R (bradykinin receptor 1) (Rattus norvegicus, UniProt P97583).
T1 construct: expressed in transfected cells; host or cells: CHO K1 cells
T1 sequence (P97583 1-337): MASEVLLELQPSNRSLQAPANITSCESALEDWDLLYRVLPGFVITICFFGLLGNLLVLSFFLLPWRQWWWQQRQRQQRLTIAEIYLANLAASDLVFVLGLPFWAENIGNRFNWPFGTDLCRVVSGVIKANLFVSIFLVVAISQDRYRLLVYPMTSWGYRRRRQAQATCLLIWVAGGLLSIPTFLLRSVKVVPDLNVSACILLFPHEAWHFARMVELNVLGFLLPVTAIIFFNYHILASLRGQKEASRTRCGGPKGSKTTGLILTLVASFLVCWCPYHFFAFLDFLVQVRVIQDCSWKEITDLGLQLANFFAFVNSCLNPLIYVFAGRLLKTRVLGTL
The assay can be described thus: FLIPR Ca2+ assay (Fluo-4) on CHO K1 cells stably transfected with the B1R gene of the rat (rB1R cells): % inhibition at 10 μM / IC50, agonist Des-Arg9-bradykinin. Particulars: CHO-K1, rat B1R. The format is cell-based. An outline of the steps: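 Stable CHO K1 lines, Fluo-4 dye, probenecid-containing buffer. Cpd 10 μM or dose range, 10–20 min, then EC80 agonist (h: Lys-Des-Arg9-BK; r: Des-Arg9-BK). Readout peak FC; % inhibition vs max; IC50 from n=2–3, N≥2.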
Take `O=C(NC1CCc2ccc(C(=O)N3CCC4(CCN(Cc5c[nH]cn5)CC4)CC3)cc21)c1cc(Cl)ccc1F` (centres unmarked) [IND_CC-625, 5-Chloro-2-fluoro-N-[6-[9-(1H-imidazol-4-yl-methyl)-3,9-diazaspiro[5.5]undecane-3-carbonyl]-2,3-dihydro-1H-inden-1-yl]-benzamide]: the inhibition at 10 µM worked out at 50%.
With `O=C(NC1CCc2ccc(C(=O)N3CCC4(CCN(c5ccncc5)CC4)C3)cc21)c1cnccn1` (centres unmarked) [IND_CC-398, N-[6-(8-Pyridin-4-yl-2,8-diazaspiro[4.5]decane-2-carbonyl)-2,3-dihydro-1H-inden-1-yl]-pyrazine-2-carboxylic acid amide], the inhibition at 10 µM amounted to 88%.
As for `O=C(NC1CCc2ccc(C(=O)N3CCC4(CC3)CCN(c3ccc(C(F)(F)F)cc3)CC4)cc21)c1cc(F)ccc1Cl` (centres unmarked) [IND_CC-222, 2-Chloro-5-fluoro-N-[6-[9-[4-(trifluoromethyl)-phenyl]-3,9-diazaspiro[5.5]undecane-3-carbonyl]-2,3-dihydro-1H-inden-1-yl]-benzamide], the inhibition at 10 µM came out at 60%.
For `CC(C)C(=O)NC1CCc2ccc(C(=O)N3CCC4(CCN(c5ccncc5)CC4)C3)cc21` (centres unmarked) [IND_CC-419, 2-Methyl-N-[6-(8-pyridin-4-yl-2,8-diazaspiro[4.5]decane-2-carbonyl)-2,3-dihydro-1H-inden-1-yl]-propionamide] the value was 101%; for `O=C(NC1CCc2ccc(C(=O)N3CCC4(CCN(Cc5ccc6nccnc6c5)CC4)C3)cc21)c1c(F)cccc1Cl` (centres unmarked) [IND_CC-775, 2-Chloro-6-fluoro-N-[6-[8-(quinoxalin-6-yl-methyl)-2,8-diazaspiro[4.5]decane-2-carbonyl]-2,3-dihydro-1H-inden-1-yl]-benzamide], 98%.
Regarding `O=C(NC1CCc2ccc(C(=O)N3CCC4(CC3)CCN(c3ccncc3)C4)cc21)c1ccccc1F` (centres unmarked) [IND_CC-401, 2-Fluoro-N-[6-(2-pyridin-4-yl-2,8-diazaspiro[4.5]decane-8-carbonyl)-2,3-dihydro-1H-inden-1-yl]-benzamide], the inhibition at 10 µM is 103%.
For `O=C(NC1CCc2ccc(C(=O)N3CCC4(CCN(Cc5ccc[nH]5)CC4)C3)cc21)c1cc(Cl)ccc1F` (centres unmarked) [IND_CC-620, 5-Chloro-2-fluoro-N-[6-[8-(1H-pyrrol-2-yl-methyl)-2,8-diazaspiro[4.5]decane-2-carbonyl]-2,3-dihydro-1H-inden-1-yl]-benzamide] the value was 54%; for `CN(C)c1ncc(CN2CCC3(CC2)CCN(C(=O)c2ccc4c(c2)C(NC(=O)c2cc(C(F)(F)F)ccc2Cl)CC4)CC3)cn1` (centres unmarked) [IND_CC-694, 2-Chloro-N-[6-[9-[(2-dimethylamino-pyrimidin-5-yl)-methyl]-3,9-diazaspiro[5.5]-undecane-3-carbonyl]-2,3-dihydro-1H-inden-1-yl]-5-(trifluoromethyl)-benzamide], 100%.
For `CC1(C)Cc2ccc(C(=O)N3CCC4(CC3)CCN(c3ccncc3)CC4)cc2C1NS(=O)(=O)c1ccc(C(F)(F)F)cc1Cl` (centres unmarked) [IND_CC-330, 2-Chloro-N-[2,2-dimethyl-6-(9-pyridin-4-yl-3,9-diazaspiro[5.5]undecane-3-carbonyl)-1,3-dihydro-inden-1-yl]-4-(trifluoromethyl)-benzenesulfonic acid amide] the value was 67%; for `O=C(NC1CCc2ccc(C(=O)N3CCC4(CCN(Cc5ccncc5)CC4)CC3)cc21)c1c(F)cccc1Cl` (centres unmarked) [IND_CC-785, 2-Chloro-6-fluoro-N-[6-[9-(pyridin-4-yl-methyl)-3,9-diazaspiro[5.5]undecane-3-carbonyl]-2,3-dihydro-1H-inden-1-yl]-benzamide], 98%; for `CN(C(=O)c1ccccc1Cl)C1CCc2ccc(C(=O)N3CCC4(CCN(C(=O)CC(C)(C)C)CC4)C3)cc21` (centres unmarked) [IND_CC-590, 2-Chloro-N-[6-[8-(3,3-dimethyl-butanoyl)-2,8-diazaspiro[4.5]decane-2-carbonyl]-2,3-dihydro-1H-inden-1-yl]-N-methyl-benzamide], 86%.
Take `Cn1nc(C(C)(C)C)cc1C(=O)N1CCC2(CCN(C(=O)c3ccc4c(c3)C(NC(=O)c3ccccc3Cl)CC4)CC2)CC1` (centres unmarked) [IND_CC-601, N-[6-[9-(5-tert-Butyl-2-methyl-2H-pyrazole-3-carbonyl)-3,9-diazaspiro-[5.5]undecane-3-carbonyl]-2,3-dihydro-1H-inden-1-yl]-2-chloro-benzamide]: the inhibition at 10 µM was found to be 77%.
In the case of `Cc1ccc(C(=O)NC2CCc3ccc(C(=O)N4CCC5(CC4)CCN(c4ccncc4)C5)cc32)c(F)c1` (centres unmarked) [IND_CC-306, 2-Fluoro-4-methyl-N-[6-(2-pyridin-4-yl-2,8-diazaspiro[4.5]decane-8-carbonyl)-2,3-dihydro-1H-inden-1-yl]-benzamide], the inhibition at 10 µM came out at 106%.
For `O=C(NC1CCc2ccc(C(=O)N3CCC4(CCN(Cc5ccc(F)c(F)c5)CC4)CC3)cc21)c1cc(C(F)(F)F)ccc1Cl` (centres unmarked) [IND_CC-645, 2-Chloro-N-[6-[9-[(3,4-difluoro-phenyl)-methyl]-3,9-diazaspiro[5.5]undecane-3-carbonyl]-2,3-dihydro-1H-inden-1-yl]-5-(trifluoromethyl)-benzamide] the value was 78%.
`Cc1nn(C)c(C)c1CN1CCC2(CC1)CCN(C(=O)c1ccc3c(c1)C(NC(=O)c1cc(C(F)(F)F)ccc1Cl)CC3)C2` (centres unmarked) [IND_CC-682, 2-Chloro-5-(trifluoromethyl)-N-[6-[8-[(1,3,5-trimethyl-1H-pyrazol-4-yl)-methyl]-2,8-diazaspiro[4.5]decane-2-carbonyl]-2,3-dihydro-1H-inden-1-yl]-benzamide]: the inhibition at 10 µM was 51%.
Regarding `COc1cccc(F)c1CN1CCC2(CC1)CCN(C(=O)c1ccc3c(c1)C(N(C(=O)c1ccccc1Cl)C1CC1)CC3)C2` (centres unmarked) [IND_CC-525, 2-Chloro-N-cyclopropyl-N-[6-[8-[(2-fluoro-6-methoxy-phenyl)-methyl]-2,8-diazaspiro[4.5]decane-2-carbonyl]-2,3-dihydro-1H-inden-1-yl]-benzamide], the inhibition at 10 µM stood at 62%.
For `CC(C)S(=O)(=O)N1CCC2(CCN(C(=O)c3ccc4c(c3)C(NC(=O)c3ccccc3Cl)CC4)CC2)CC1` (centres unmarked) [IND_CC-613, 2-Chloro-N-[6-[9-(isopropylsulfonyl)-3,9-diazaspiro[5.5]undecane-3-carbonyl]-2,3-dihydro-1H-inden-1-yl]-benzamide], the inhibition at 10 µM amounted to 102%.
For `O=C(NC1CCc2ccc(C(=O)N3CCC4(CCN(Cc5ccc6nccnc6c5)CC4)C3)cc21)c1sccc1Cl` (centres unmarked) [IND_CC-571, 3-Chloro-N-[6-[8-(quinoxalin-6-yl-methyl)-2,8-diazaspiro[4.5]decane-2-carbonyl]-2,3-dihydro-1H-inden-1-yl]-thiophene-2-carboxylic acid amide] the value was 52%.
As to `Cn1ccc2cc(S(=O)(=O)N3CCC4(CCN(C(=O)c5ccc6c(c5)C(N(C(=O)c5ccccc5Cl)C5CC5)CC6)C4)CC3)ccc21` (centres unmarked) [IND_CC-619, 2-Chloro-N-cyclopropyl-N-[6-[8-[(1-methyl-1H-indol-5-yl)sulfonyl]-2,8-diazaspiro[4.5]decane-2-carbonyl]-2,3-dihydro-1H-inden-1-yl]-benzamide], the inhibition at 10 µM is 57%.
For `Cc1nc(CN2CCC3(CC2)CCN(C(=O)c2ccc4c(c2)C(NC(=O)c2c(C)cccc2Cl)CC4)C3)c[nH]1` (centres unmarked) [IND_CC-728, 2-Chloro-6-methyl-N-[6-[8-[(2-methyl-1H-imidazol-4-yl)-methyl]-2,8-diazaspiro[4.5]decane-2-carbonyl]-2,3-dihydro-1H-inden-1-yl]-benzamide] the value was 58%.
